# Assay results as given in US20260027071A1, “COMPOSITION FOR PROMOTING COLLAGEN PRODUCTION COMPRISING AMIDATED AMINO ACID” (KYUNGPOOK NATIONAL UNIVERSITY INDUSTRY-ACADEMIC COOPERATION …, priority 2022, published 2026).
# “Also recorded” adds a separate entry of the source. Peptide text beside a SMILES is read from it.
# Assays:
# human dermal fibroblasts = experiment: Wound healing (wound closure) assay, Oris cell migration kit; type: cell-based; conditions: HDF
# Experimental: Wound closure analysis was performed using the Oris™ Universal Cell Migration Assembly kit (Platinus Technologies, WI, USA) according to the manufacturer's instructions. The Oris™ stoppers were inserted into each well of the Oris™-compatible 96-well plate, and the plate was inverted to check for complete stopper attachment. A suspension of human dermal fibroblasts in IMDM was added to each well (1×10^4 cells in 100 μL per well) and incubated for 12 hours to allow cell attachment. Then, the stoppers were removed using the stopper tool, and the medium was aspirated using a pipette. The wells were gently washed with 100 μL PBS to remove unattached cells, and the attached cells were treated with drugs in 100 μL culture medium for the specified time, respectively. Images of the wounds were obtained using a phase-contrast microscope (Eclipse TS 100, Nikon Instruments Inc., Melville, NY, USA). The wound areas in the images were quantified using the NIH Image J program. Wound closure (%) was calculated using the following equation: Wound closure (%)=[(A0−At)/A0]×100, where A0 is the area of the original wound and At is the wound area measured at the specified time.
# [1] = tested on: Human dermal fibroblasts (HDF); experiment: Collagen protein in conditioned media (Sircol Collagen Assay) of human dermal fibroblasts; type: cell-based; conditions: for change in collagen production induced by individual treatment / change in collagen production induced by combined treatment with glycinamide: FIG. 7b; for change in collagen production induced by individual treatment: concentration not given; for change in collagen production induced by combined treatment with glycinamide: ascorbic acid analog combined with glycinamide; for collagen production (collagen levels secreted into the media): HDF treated at 1 mM, result in words
# Experimental: The collagen protein levels in the conditioned media were evaluated using the Sircol™ Collagen Assay (Biocolor, Antrim, UK) according to the manufacturer's instructions. […] After discarding the media, the cells were washed with 500 μL of phosphate-buffered saline (PBS), then incubated in 1 mL of serum-free media for another 24 hours. A 1.0 mL media sample (either conditioned media or fresh media as a negative control) was transferred to a microcentrifuge tube, mixed with 100 μL of collagen isolation and concentration reagent, and incubated overnight at 4° C. The samples were centrifuged at 13,000×g for 10 minutes at 4° C., and the supernatant was carefully removed using a pipette without disturbing the pellet. Each tube was then added with 500 μL of Sircol dye reagent, inverted five times, and shaken at room temperature for 30 minutes. After centrifugation, the supernatant was discarded, and the pellet was washed with 500 μL of cold acid-salt washing reagent, followed by another centrifugation step. The pellet was then dissolved in 250 μL of alkali reagent, and a 200 μL portion was transferred to a 96-well plate. The optical density of the solution was read at 555 nm using a Spectrostar Nano microplate reader (BMG LABTECH GmbH, Ortenberg, Germany).
# [2] = tested on: Human dermal fibroblasts (HDF); experiment: Cell viability / proliferation (MTT assay) in human dermal fibroblasts; conditions: for cell proliferation effect of TGF-β1: HDF, analog combined with TGF-β1 (FIG. 7c); for cell viability: HDF treated at 1 mM, result in words
# Experimental: (§1) Human dermal fibroblasts (HDF) extracted from adult skin were obtained from Cascade Biologics (Portland, OR, USA), and human articular chondrocytes (HAC), human follicle dermal papilla cells (HFCPC), human aortic endothelial cells (HAoEC), and human osteoblasts (HOB) were obtained from PromoCell (Heidelberg, Germany). The cells were cultured in a closed incubator at 37° C. in humidified air comprising 5% CO2. The growth medium for HDF consisted of Iscove's Modified Dulbecco's Medium (IMDM) (Gibco BRL, Grand Island, NY, USA) supplemented with 10% fetal bovine serum (Hyclone, South Logan, UT) and 1% antibiotics (100 U·mL^−1 penicillin, 0.1 mg·mL^−1 streptomycin).
# (§2) The cell viability was evaluated using the MTT assay. Briefly, HDF (1×10^4 cells per well), HAC (5×10^3 cells per well), HFDPC (1×10^4 cells per well), HAoEC (5×10^3 cells per well), and HOB (2×10^3 cells per well) were cultured in growth media in a 96-well culture plate for 24 hours, followed by treatment with each drug for 48 hours. After discarding the media, the cells were incubated at 37° C. for 2 hours in fresh growth media (100 μL) containing 1 mg·mL^−1 MTT (Amresco, Solon, OH, USA). The media was removed by aspiration, and the formazan dye accumulated inside the cells was dissolved in 100 μL of dimethyl sulfoxide. The absorbance of the solution was measured at 570 nm using a Spetrostar Nano microplate reader (BMG LABTECH GmbH, Ortenberg, Germany).
# [3] = tested on: Human dermal fibroblasts (HDF); conditions: 48 h
# Experimental: as §1, §2
compound,measurement,setting,value
"CCCCCCCCC(CCCCCC)C(=O)OC[C@H](OC(=O)C(CCCCCC)CCCCCCCC)[C@H]1OC(=O)C(OC(=O)C(CCCCCC)CCCCCCCC)=C1OC(=O)C(CCCCCC)CCCCCCCC (some centres unmarked) [ATI, ascorbyl tetraisopalmitate, reference compound]",wound closure,human dermal fibroblasts; early stage (24 hours),slightly promoted wound closure
same,wound closure,human dermal fibroblasts; later stages (36 and 48 hours),inhibited
same,change in collagen production induced by individual treatment,[1]; HDF,25.5%
same,change in collagen production induced by combined treatment with glycinamide,[1]; HDF,124.6%
same,cell proliferation effect of TGF-β1,[2],significantly reduced
"Cl.Cl.N=C(N)NCCC[C@H](N)C(N)=O [argininamide, L-Argininamide diHCl]",collagen production (collagen levels secreted into the media),[1],enhanced the collagen levels
madecassoside [reference compound],collagen production,"[1]; HDF, 10 μM",no significant effect
same,concentrations at which collagen production increased,"[1]; HDF, non-cytotoxic concentrations (FIG. 10b)",100 µM
"Cl.NC(=O)CC[C@H](N)C(N)=O [glutaminamide, L-Glutaminamide HCl]",collagen production (collagen levels secreted into the media),[1],enhanced the collagen levels
"CCOC1=C(O)C(=O)O[C@@H]1[C@@H](O)CO [EAA, 3-O-ethyl ascorbic acid, reference compound]",wound closure,human dermal fibroblasts; early stage (24 hours),slightly promoted wound closure
same,wound closure,human dermal fibroblasts; later stages (36 and 48 hours),inhibited
same,change in collagen production induced by individual treatment,[1]; HDF,19.5%
same,change in collagen production induced by combined treatment with glycinamide,[1]; HDF,115.5%
same,cell proliferation effect of TGF-β1,[2],significantly reduced
NCC(=O)NCC(=O)O [glycylglycine] (H-Gly-Gly-OH),collagen production (collagen levels secreted into the media),[1],promoted collagen production
same,collagen production,"[1]; HDF, 0.25 mM",increased collagen production
same,collagen production,"[1]; HDF, 1-2 mM",greatest enhancement of collagen production
same,collagen production,"[1]; HDF, 3 and 5 mM",slightly reduced
"C[C@H](N)C(N)=O.Cl [alaninamide, L-Alaninamide HCl]",collagen production (collagen levels secreted into the media),[1],enhanced the collagen levels
"C[C@@H](O)[C@H](N)C(N)=O.Cl [threoninamide, L-Threoninamide HCl]",collagen production (collagen levels secreted into the media),[1],enhanced the collagen levels
"COC(=O)CN.Cl [glycine methyl ester, glycine methyl ester HCl, reference compound]",collagen production (collagen levels secreted into the media),[1],somewhat reducing effect
"NCC(=O)O [glycine, Glycine, reference compound]",collagen production (collagen levels secreted into the media),[1],most effectively increased collagen; also recorded: enhanced collagen production
same,collagen production,"[1]; HDF, 3 and 5 mM",significantly reduced
"Cl.NC(=O)[C@@H](N)Cc1c[nH]cn1 [histidinamide, L-Histidinamide HCl]",collagen production (collagen levels secreted into the media),[1],no significant effect
C[C@H]1[C@H](C)CC[C@]2(C(=O)O)CC[C@]3(C)C(=CC[C@@H]4[C@@]5(C)C[C@@H](O)[C@H](O)[C@@](C)(CO)[C@@H]5CC[C@]43C)[C@H]12 [asiatic acid],concentrations that reduced cell viability,[3],above 300 μM
same,concentrations with no effect on cell viability,[3],below 100 μM
same,collagen production,"[1]; HDF, 10 μM",decreased
"O=C1O[C@H]([C@@H](O)CO)C(O)=C1O[C@H]1O[C@H](CO)[C@@H](O)[C@H](O)[C@H]1O [AG, ascorbyl 2-O-glucoside, reference compound]",wound closure,human dermal fibroblasts; early stage (24 hours),slightly promoted wound closure
same,wound closure,human dermal fibroblasts; later stages (36 and 48 hours),inhibited
same,change in collagen production induced by individual treatment,[1]; HDF,27.2%
same,change in collagen production induced by combined treatment with glycinamide,[1]; HDF,123.6%
same,cell proliferation effect of TGF-β1,[2],significantly reduced
"Cl.NC(=O)[C@@H]1CCCN1 [prolinamide, L-Prolinamide HCl]",collagen production (collagen levels secreted into the media),[1],enhanced the collagen levels
"Cl.Cl.NCCCC[C@H](N)C(N)=O [lysinamide, L-Lysinamide diHCl]",collagen production (collagen levels secreted into the media),[1],no significant effect
same,cell viability,[2],reducing effect
"Cl.NC(=O)C[C@H](N)C(N)=O [asparaginamide, L-Asparaginamide HCl]",collagen production (collagen levels secreted into the media),[1],no significant effect
"Cl.NC(=O)[C@@H](N)CS [cysteinamide, L-Cysteinamide HCl]",collagen production (collagen levels secreted into the media),[1],enhanced the collagen levels
"CC(C)C[C@H](N)C(=O)O [leucine, L-Leucine, reference compound]",collagen production (collagen levels secreted into the media),[1],increased collagen
"NCC(=O)NCC(=O)O [glycyl glycine, reference compound] (H-Gly-Gly-OH)",collagen production (collagen levels secreted into the media),[1],did not affect collagen production
"O=C(O)[C@@H]1CCCN1 [proline, L-Proline, reference compound]",collagen production (collagen levels secreted into the media),[1],increased collagen
"Cl.NC(=O)[C@@H](N)CC(=O)O [aspartic acid α-amide, L-Aspartic acid α-amide HCl]",collagen production (collagen levels secreted into the media),[1],no significant effect
same,cell viability,[2],reducing effect
"CSCC[C@H](N)C(N)=O.Cl [methioninamide, L-Methioninamide HCl]",collagen production (collagen levels secreted into the media),[1],enhanced the collagen levels
"CC(C)C[C@H](N)C(N)=O.Cl [leucinamide, L-Leucinamide HCl]",collagen production (collagen levels secreted into the media),[1],enhanced the collagen levels
"Cl.NC(=O)[C@@H](N)CO [serinamide, L-Serinamide HCl]",collagen production (collagen levels secreted into the media),[1],no significant effect
"NC(=O)[C@@H](N)CCC(=O)O [glutamic acid α-amide, L-Glutamic acid α-amide]",collagen production (collagen levels secreted into the media),[1],enhanced the collagen levels
"Cl.NC(=O)[C@@H](N)Cc1ccccc1 [phenylalaninamide, L-Phenylalaninamide HCl]",collagen production (collagen levels secreted into the media),[1],enhanced the collagen levels
"NC(=O)CC[C@H](N)C(=O)O [glutamine, L-Glutamine, reference compound]",collagen production (collagen levels secreted into the media),[1],increased collagen
"CC[C@H](C)[C@H](N)C(=O)O [isoleucine, L-Isoleucine, reference compound]",collagen production (collagen levels secreted into the media),[1],increased collagen
"CCOC(=O)CN.Cl [glycine ethyl ester, glycine ethyl ester HCl, reference compound]",collagen production (collagen levels secreted into the media),[1],did not affect collagen production
"CC[C@H](C)[C@H](N)C(N)=O.Cl [isoleucinamide, L-Isoleucinamide HCl]",collagen production (collagen levels secreted into the media),[1],enhanced the collagen levels
"Cl.NC(=O)[C@@H](N)Cc1c[nH]c2ccccc12 [tryptophanamid, L-Tryptophanamide HCl]",collagen production (collagen levels secreted into the media),[1],no significant effect
"CC(=O)NCC(=O)O [N-acetyl glycine, reference compound]",collagen production (collagen levels secreted into the media),[1],did not affect collagen production
"CC(C)[C@H](N)C(N)=O.Cl [valinamide, L-Valinamide HCl]",collagen production (collagen levels secreted into the media),[1],enhanced the collagen levels
"O=C1O[C@H]([C@@H](O)CO)C([O-])=C1OP(=O)([O-])[O-].O=C1O[C@H]([C@@H](O)CO)C([O-])=C1OP(=O)([O-])[O-].[Mg+2].[Mg+2].[Mg+2] [MAP, Magnesium ascorbyl phosphate, reference compound]",further enhancement of wound closure by combined treatment with glycinamide,human dermal fibroblasts; analog combined with glycinamide,further enhanced
same,wound closure,"human dermal fibroblasts; treated alone, up to 48 hours (FIG. 8b)",promoted wound closure to a similar extent as ascorbic acid
same,change in collagen production induced by individual treatment,[1]; HDF,25.3%
same,change in collagen production induced by combined treatment with glycinamide,[1]; HDF,118.4%
"Cl.NC(=O)[C@@H](N)Cc1ccc(O)cc1 [tyrosinamide, L-Tyrosinamide HCl]",collagen production (collagen levels secreted into the media),[1],enhanced the collagen levels
